For 19 molecules, IC50 results are on record in US10081647B2, “Phosphate substituted quinolizine derivatives useful as HIV integrase inhibitors” (Merck Sharp & Dohme Corp., priority 2015, dated 2018).

SMILES strings stand for the structures. Like-named read-outs stand apart in the source and are kept apart here.

This test has as its system HIV-1 (NL4-3 strain). Put plainly: Assay for inhibition of HIV replication (MT4-gag-GFP reporter cell line, kinetic assay). It is filed as cell-based. To be noted: IP from 4-parameter dose response curve. On the procedure: This assay is useful for assessing the ability of a compound of the present inventiongin to inhibit HIV replication. The assay is a kinetic assay that employs a reporter cell line (MT4-gag-GFP) to quantify the number of new cells infected in each round of replication.
MT4-GFP cells (250,000 cells/ml) are bulk-infected with HIV-1 (NL4-3 strain) at low multiplicity of infection (MOI) in RPMI+10% FBS for 24 hours. Cells are then washed once in RPMI+10% FBS and resuspended in RPMI+0% or 10% or 100% normal human serum (NHS). Test compounds are serial-diluted in DMSO using an ECHO liquid handler. The infected MT4-GFP cells are added to a 384-well poly-D-lysine coated black plate with clear bottom in which the diluted test compounds are placed. The cells are seeded at 8,000 cells per well and the final DMSO concentration is adjusted to 0.4%. The infected cells (Green GFP cells) are then quantified at both 24 and 48 hours post incubation using Acumen eX3. Viral reproductive ratio (R0) is determined using the number of infected cells at 48 hours divided by the number of infected cells at 24 hours. Percent viral growth inhibition is calculated by [1−(R−Rtripledrug)/(RDMSO−Rtripledrug)]*100. Compound potency IP or IC50 can be determined using a 4-parameter dose response curve analysis.

Setting [1] is: infected MT4-GFP cells in 100% normal human serum, read-out: WILD TYPE CELL ASSAY Viking IP (100% NHS).
The mark [2] stands for this setting: infected MT4-GFP cells in RPMI + 0% normal human serum, read-out: WILD TYPE CELL ASSAY Viking IP (0% NHS).

Regarding `COC1Cn2cc(C(=O)NCc3ccc(F)cc3F)c(=O)c(O)c2C(=O)C1(C)COCCP(=O)(OCOC(=O)OC(C)C)OCOC(=O)OC(C)C` (centres unmarked) [Compound 42], the IC50 reads like this: under setting [1], 407 nM; under setting [2], 1.2 nM.
Regarding `COC1Cn2cc(C(=O)NCc3ccc(F)cc3F)c(=O)c(O)c2C(=O)C1(C)CCOCCP(=O)(O)O` (centres unmarked) [Compound 59], the IC50 under setting [1] was determined as 4260 nM and the IC50 under setting [2] is more than 1050 nM.
In the case of `COC1Cn2cc(C(=O)NCc3ccc(F)cc3F)c(=O)c(O)c2C(=O)C1(C)COCCP(=O)(OCOC(=O)OC(C)C)OCOC(=O)OC(C)C` (centres unmarked) [Compound 41], the IC50 runs as follows: under setting [1], more than 8000 nM; under setting [2], 0.97 nM.
`CCOP(=O)(CCCOC1Cn2cc(C(=O)NCc3ccc(F)cc3F)c(=O)c(O)c2C(=O)C1(C)CCOC)OCC` (centres unmarked) [Compound 90]: the IC50 is, setting by setting: under setting [1], 123 nM; under setting [2], 15 nM.
`COCCC1(C)C(=O)c2c(O)c(=O)c(C(=O)NCc3ccc(F)cc3F)cn2CC1OCCP(=O)(OCOC(=O)OC(C)C)OCOC(=O)OC(C)C` (centres unmarked) [Compound 86]: the IC50 is 980 nM under setting [1] and 3.5 nM under setting [2].
`CCOP(=O)(CCOCC1(C)C(=O)c2c(O)c(=O)c(C(=O)NCc3ccc(F)cc3F)cn2CC1OC)OCC` (centres unmarked) [Compound 33]: the IC50 is, setting by setting: under setting [1], 188 nM; under setting [2], 13 nM.
The matching figures for `CC(C)OC(=O)OCOP(=O)(CCOC1Cn2cc(C(=O)NCc3ccc(F)cc3F)c(=O)c(O)c2C(=O)C1(C)C)OCOC(=O)OC(C)C` (centres unmarked) [Compound 70]: 2020 nM and 13 nM.
Taken in the same sequence, the figures for `COCCC1(C)C(=O)c2c(O)c(=O)c(C(=O)NCc3ccc(F)cc3F)cn2CC1OCCP(=O)(OCOC(=O)OC(C)C)OCOC(=O)OC(C)C` (centres unmarked) [Compound 85] were 7.7 nM and 0.291 nM.
The matching figures for `COC1Cn2cc(C(=O)NCc3ccc(F)cc3F)c(=O)c(O)c2C(=O)C1(C)COCCP(=O)(O)O` (centres unmarked) [Compound 38]: 6050 nM and 738 nM.
Regarding `COC1Cn2cc(C(=O)NCc3ccc(F)cc3F)c(=O)c(O)c2C(=O)C1(C)CCOCCP(=O)(O)O` (centres unmarked) [Compound 61], the IC50 came to 2500 nM under setting [1] and 970 nM under setting [2].
The matching figures for `CC(C)OC(=O)OCOP(=O)(CCCNC1Cn2cc(C(=O)NCc3ccc(F)cc3F)c(=O)c(O)c2C(=O)C1(C)C)OCOC(=O)OC(C)C` (centres unmarked) [Compound 109]: 3520 nM and 38 nM.
Turning to `CC1(C)C(=O)c2c(O)c(=O)c(C(=O)NCc3ccc(F)cc3F)cn2CC1OCCCP(=O)(O)O` (centres unmarked) [Compound 73], the IC50 was more than 8400 nM (Human immunodeficiency virus 1, NL43, infected MT4-GFP cells in 100% normal human serum, read-out: WILD TYPE CELL ASSAY Viking IP (100% NHS)) and 836 nM (Human immunodeficiency virus 1, NL43, infected MT4-GFP cells in RPMI + 0% normal human serum, read-out: WILD TYPE CELL ASSAY Viking IP (0% NHS)).
As for `COCCC1(C)C(=O)c2c(O)c(=O)c(C(=O)NCc3ccc(F)cc3F)cn2CC1OCCP(=O)(O)O` (centres unmarked) [Compound 82], the IC50 under setting [1] was more than 8000 nM and the IC50 under setting [2] turned out to be 729 nM.
Taken in the same sequence, the figures for `CCOP(=O)(CCOC1Cn2cc(C(=O)NCc3ccc(F)cc3F)c(=O)c(O)c2C(=O)C1(C)C)OCC` (centres unmarked) [Compound 66] were 1280 nM and 19 nM.
With `COC1Cn2cc(C(=O)NCc3ccc(F)cc3F)c(=O)c(O)c2C(=O)C1(C)CCOCCP(=O)(OCOC(=O)OC(C)C)OCOC(=O)OC(C)C` (centres unmarked) [Compound 62], the IC50 runs as follows: under setting [1], 4700 nM; under setting [2], 14 nM.
Taken in the same sequence, the figures for `CCOP(=O)(CCCOCCC1(C)C(=O)c2c(O)c(=O)c(C(=O)NCc3ccc(F)cc3F)cn2CC1OC)OCC` (centres unmarked) [Compound 44] were 159 nM and 7.2 nM.
On to `CCOP(=O)(CCOCCC1(C)C(=O)c2c(O)c(=O)c(C(=O)NCc3ccc(F)cc3F)cn2CC1OC)OCC` (centres unmarked) [Compound 57], for which the IC50 was 84 nM under setting [1] and 7 nM under setting [2].
In the case of `CCOP(=O)(CCCOCCC1(C)C(=O)c2c(O)c(=O)c(C(=O)NCc3ccc(F)cc3F)cn2CC1OC)OCC` (centres unmarked) [Compound 47], the IC50 came out at 4600 nM under setting [1] and 298 nM under setting [2].
The matching figures for `CCOP(=O)(CCCOCCC1(C)C(=O)c2c(O)c(=O)c(C(=O)NCc3ccc(F)cc3F)cn2CC1OC)OCC` (centres unmarked) [Compound 45]: 300 nM and 8.2 nM.
